According to the supplement of paper PMC11451515:

Assays:
Conditions in all cases: 48 h
SEM cells [1] = test: cell viability relative to DMSO control; higher = less cytotoxic
In short: (§1)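 Leukemia cells (NOMO1 or SEM, 500 cells/well; P12-Ichikawa, 1000 cells/well) were seeded in 5 μl in 1536-well plates after at least four passages of adaptation to each medium. They received library compounds in DMSO by pin dosing, 11 threefold points from 47 μM to 0.79 nM. Luminescence with CellTiter-Glo One was read after 48 h at 37°C. Viability is stated per plate relative to DMSO wells, with cell-free wells as background.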

NOMO1 [2] = test: as above
In short: as §1

P12-Ichikawa [3] = test: as above
In short: as §1

SEM cells [4] = test: AUC of viability dose-response curve (% viability x log10 dose units); higher = less sensitive
In short: (§2)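 Leukemia cells adapted to each medium were seeded in 1536-well plates (500 or 1000 cells/well) and given library compounds in DMSO for 48 h at 37°C. The 11 threefold doses spanned 47 μM to 0.79 nM, and CellTiter-Glo One luminescence was normalised per plate to DMSO and cell-free wells before four-parameter log-logistic fitting on log10 dose. Area under the curve was integrated with the trapezoidal rule, scaling curves above full viability and removing curves that failed quality control.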

NOMO1 [5] = test: as above
In short: as §2

P12-Ichikawa [6] = test: as above
In short: as §2

O=C1CCC[C@@H]2[C@H]3CCC[N+]4([O-])CCC[C@@H](CN12)[C@@H]34 (some centres undefined)
cell viability [%]
Conditions | NOMO1 [2] | P12-Ichikawa [3] | SEM cells [1]
HPLM + 10% dialyzed FBS, 0.000781 µM | 75.3 | 88.3 | 61.8
HPLM + 10% dialyzed FBS, 0.00234 µM | 92.3 | 89.2 | 68.2
HPLM + 10% dialyzed FBS, 0.00702 µM | 98.9 | 100 | 84.1
HPLM + 10% dialyzed FBS, 0.0211 µM | 87.6 | 102 | 86.2
HPLM + 10% dialyzed FBS, 0.0632 µM | 105 | 98.8 | 96.2
HPLM + 10% dialyzed FBS, 0.19 µM | 98.2 | 92.9 | 94
HPLM + 10% dialyzed FBS, 0.569 µM | 88.4 | 105 | 89.4
HPLM + 10% dialyzed FBS, 1.71 µM | 94.5 | 102 | 92.1
HPLM + 10% dialyzed FBS, 5.12 µM | 56.9 | 89.5 | 71.9
HPLM + 10% dialyzed FBS, 15.4 µM | 10.1 | 98.6 | 27.1
HPLM + 10% dialyzed FBS, 46.1 µM | 5.34 | 97.7 | 78.6
RPMI 5 mM glucose + 10% FBS, 0.000781 µM | 83.5 | 83.5 | 84.7
RPMI 5 mM glucose + 10% FBS, 0.00234 µM | 86.8 | 80.8 | 87.4
RPMI 5 mM glucose + 10% FBS, 0.00702 µM | 86.1 | 89.7 | 93.9
RPMI 5 mM glucose + 10% FBS, 0.0211 µM | 92.7 | 95.1 | 94.7
RPMI 5 mM glucose + 10% FBS, 0.0632 µM | 98.7 | 95.5 | 89.1
RPMI 5 mM glucose + 10% FBS, 0.19 µM | 92 | 97.2 | 101
RPMI 5 mM glucose + 10% FBS, 0.569 µM | 107 | 87.7 | 96.6
RPMI 5 mM glucose + 10% FBS, 1.71 µM | 94.1 | 94.7 | 99.5
RPMI 5 mM glucose + 10% FBS, 5.12 µM | 64.3 | 87.3 | 71.5
RPMI 5 mM glucose + 10% FBS, 15.4 µM | 22 | 99.9 | 18.8
RPMI 5 mM glucose + 10% FBS, 46.1 µM | 6.85 | 88 | 86.8
RPMI 5 mM glucose + 10% dialyzed FBS, 0.000781 µM | 79.1 | 78.2 | 89.7
RPMI 5 mM glucose + 10% dialyzed FBS, 0.00234 µM | 88.7 | 84.9 | 68.5
RPMI 5 mM glucose + 10% dialyzed FBS, 0.00702 µM | 93.2 | 94.1 | 82.2
RPMI 5 mM glucose + 10% dialyzed FBS, 0.0211 µM | 97.4 | 94 | 97.9
RPMI 5 mM glucose + 10% dialyzed FBS, 0.0632 µM | 97.8 | 93 | 85.4
RPMI 5 mM glucose + 10% dialyzed FBS, 0.19 µM | 98.7 | 83.5 | 96.6
RPMI 5 mM glucose + 10% dialyzed FBS, 0.569 µM | 94.4 | 81.4 | 102
RPMI 5 mM glucose + 10% dialyzed FBS, 1.71 µM | 88.9 | 90.8 | 81.4
RPMI 5 mM glucose + 10% dialyzed FBS, 5.12 µM | 51.3 | 90 | 91.1
RPMI 5 mM glucose + 10% dialyzed FBS, 15.4 µM | 29.7 | 89.6 | 24
RPMI 5 mM glucose + 10% dialyzed FBS, 46.1 µM | 5.35 | 89.2 | 88.7

AUC of viability dose-response curve
Conditions | NOMO1 [5] | P12-Ichikawa [6] | SEM cells [4]
HPLM + 10% dialyzed FBS | 364 | 463 | 373
RPMI 5 mM glucose + 10% FBS | 374 | 435 | 406
RPMI 5 mM glucose + 10% dialyzed FBS | 369 | 422 | 398

COc1cccc(Nc2c(C(N)=O)cnc3c(C)cc([S+](=O)([O-])c4cccc(C(=O)N(C)C)c4)cc23)c1
cell viability [%], SEM cells [1]
Conditions | HPLM + 10% dialyzed FBS | RPMI 5 mM glucose + 10% FBS | RPMI 5 mM glucose + 10% dialyzed FBS
0.000781 µM | 119 | 124 | 123
0.00234 µM | 113 | 123 | 130
0.00702 µM | 134 | 123 | 119
0.0211 µM | 130 | 136 | 129
0.0632 µM | 114 | 141 | 150
0.19 µM | 128 | 137 | 142
0.569 µM | 144 | 142 | 158
1.71 µM | 126 | 134 | 146
5.12 µM | 128 | 138 | 135
15.4 µM | 134 | 137 | 128
46.1 µM | 126 | 119 | 118

AUC of viability dose-response curve
Conditions | NOMO1 [5] | P12-Ichikawa [6] | SEM cells [4]
HPLM + 10% dialyzed FBS | 465 | 470 | 459
RPMI 5 mM glucose + 10% FBS | 472 | 472 | 466
RPMI 5 mM glucose + 10% dialyzed FBS | 469 | 469 | 468

CNC(=O)c1cc(Oc2ccc(NC(=O)Nc3ccc(Cl)c(C(F)(F)F)c3)cc2)ccn1
cell viability [%], SEM cells [1]
Conditions | RPMI 5 mM glucose + 10% FBS | RPMI 5 mM glucose + 10% dialyzed FBS
0.000781 µM | 108 | 109
0.00234 µM | 112 | 108
0.00702 µM | 89.1 | 98.8
0.0211 µM | 89.8 | 79.3
0.0632 µM | 70.8 | 64.7
0.19 µM | 57.1 | 57.8
0.569 µM | 54 | 59.7
1.71 µM | 75.3 | 63.8
5.12 µM | 63.9 | 72.1
15.4 µM | 63 | 68.9
46.1 µM | 5.7 | 11.6

AUC of viability dose-response curve
Conditions | NOMO1 [5] | P12-Ichikawa [6] | SEM cells [4]
HPLM + 10% dialyzed FBS | 445 | 457 | 278
RPMI 5 mM glucose + 10% FBS | 448 | 448 | 313
RPMI 5 mM glucose + 10% dialyzed FBS | 432 | 448 | 317

CN1C(=O)CCS(=O)(=O)C1c1ccc(Cl)cc1 (centres undefined)
AUC of viability dose-response curve
Conditions | HPLM + 10% dialyzed FBS | RPMI 5 mM glucose + 10% FBS | RPMI 5 mM glucose + 10% dialyzed FBS
NOMO1 [5] | 447 | 472 | 459
P12-Ichikawa [6] | 452 | 448 | 442

Nc1nc2ccc(OC(F)(F)F)cc2s1
cell viability [%], SEM cells [1]
Conditions | HPLM + 10% dialyzed FBS | RPMI 5 mM glucose + 10% dialyzed FBS
0.000781 µM | 137 | 127
0.00234 µM | 119 | 123
0.00702 µM | 120 | 125
0.0211 µM | 133 | 131
0.0632 µM | 134 | 119
0.19 µM | 127 | 129
0.569 µM | 131 | 147
1.71 µM | 131 | 123
5.12 µM | 130 | 130
15.4 µM | 114 | 118
46.1 µM | 78.3 | 64

AUC of viability dose-response curve
Conditions | NOMO1 [5] | P12-Ichikawa [6] | SEM cells [4]
HPLM + 10% dialyzed FBS | 453 | 462 | 462
RPMI 5 mM glucose + 10% FBS | 455 | 461 | 461
RPMI 5 mM glucose + 10% dialyzed FBS | 455 | 466 | 461

Cn1cnc2c(F)c(Nc3ccc(Br)cc3Cl)c(C(=O)NOCCO)cc21
AUC of viability dose-response curve
Conditions | NOMO1 [5] | P12-Ichikawa [6] | SEM cells [4]
HPLM + 10% dialyzed FBS | 260 | 295 | 295
RPMI 5 mM glucose + 10% FBS | 289 | 295 | 278
RPMI 5 mM glucose + 10% dialyzed FBS | 258 | 299 | 273

CCCCCCCCCCCCCCCC(=O)O[C@@H]1[C@@H](O)[C@@H](O)[C@@H]([C@H](NC(=O)[C@@H]2C[C@@H](CCC)CN2C)[C@H](C)Cl)O[C@@H]1SC.Cl
AUC of viability dose-response curve
Conditions | NOMO1 [5] | P12-Ichikawa [6] | SEM cells [4]
HPLM + 10% dialyzed FBS | 426 | 452 | 470
RPMI 5 mM glucose + 10% FBS | 423 | 456 | 469
RPMI 5 mM glucose + 10% dialyzed FBS | 425 | 442 | 465

CC[C@@H](C(N)=O)N1CCCC1=O
AUC of viability dose-response curve
Conditions | NOMO1 [5] | P12-Ichikawa [6] | SEM cells [4]
HPLM + 10% dialyzed FBS | 442 | 458 | 450
RPMI 5 mM glucose + 10% FBS | 466 | 460 | 420
RPMI 5 mM glucose + 10% dialyzed FBS | 456 | 467 | 443

Cc1cc(-c2ncc(CC(=O)Nc3ccc(-c4cnccn4)cn3)cc2C)ccn1
AUC of viability dose-response curve
Conditions | NOMO1 [5] | P12-Ichikawa [6] | SEM cells [4]
HPLM + 10% dialyzed FBS | 445 | 458 | 462
RPMI 5 mM glucose + 10% FBS | 466 | 439 | 458
RPMI 5 mM glucose + 10% dialyzed FBS | 447 | 456 | 457
